{"source": "ChEMBL document CHEMBL2396537", "about": "“Orally active opioid compounds from a non-poppy source” (J Med Chem, 2013)", "key": {"Cavia porcellus [1]": {"organism": "Cavia porcellus", "experiment": "Agonist activity at opioid receptor in guinea pig ileum assessed as inhibition of electrically-induced twitch at 100 pM to 30 uM relative to morphine", "type": "tissue-based"}, "Rattus norvegicus": {"tested_on": "Rattus norvegicus", "experiment": "Inhibition of gastrointestinal transit of charcoal meal in rat at 55.2 mg/kg, po", "type": "organism-based", "design": "dose 55.2 mg/kg, route oral", "conditions": "in vivo"}, "Mus musculus [2]": {"tested_on": "Mus musculus", "experiment": "Antinociceptive activity in mouse at 92 mg/kg, po by hot plate test", "type": "functional"}, "Cavia porcellus [3]": {"organism": "Cavia porcellus", "experiment": "Selectivity ratio of Ki for mu opioid receptor in Dunkin-Hartley guinea pig brain over Ki for delta opioid receptor in Dunkin-Hartley guinea pig brain"}, "[4]": {"target": "T1, Kappa-type opioid receptor (Cavia porcellus, UniProt P41144)", "T1 sequence (P41144 whole entry)": "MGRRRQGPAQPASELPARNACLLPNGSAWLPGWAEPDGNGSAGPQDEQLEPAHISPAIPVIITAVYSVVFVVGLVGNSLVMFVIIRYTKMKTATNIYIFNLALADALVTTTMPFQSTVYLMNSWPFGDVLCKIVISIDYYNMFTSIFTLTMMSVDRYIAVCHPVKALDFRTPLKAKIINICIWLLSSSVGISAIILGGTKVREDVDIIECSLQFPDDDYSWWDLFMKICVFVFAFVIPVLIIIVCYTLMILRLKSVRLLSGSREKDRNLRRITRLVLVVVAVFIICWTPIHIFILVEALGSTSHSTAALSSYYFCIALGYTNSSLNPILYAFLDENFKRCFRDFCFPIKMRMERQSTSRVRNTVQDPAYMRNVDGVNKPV", "experiment": "Displacement of [3H]U-69593 from kappa opoid receptor in Dunkin-Hartley guinea pig brain after 1 hr by liquid scintillation spectrometry"}, "[5]": {"experiment": "Displacement of [3H]DPDPE from delta opoid receptor in Dunkin-Hartley guinea pig brain after 2 hrs by liquid scintillation spectrometry", "design": "species or system Cavia porcellus"}, "Mus musculus [6]": {"tested_on": "Mus musculus", "experiment": "Antinociceptive activity in ddY mouse assessed as tolerance level at 10 mg/kg, sc bid measured on day 5 by tail-flick test", "type": "functional"}, "[7]": {"target": "T1, Kappa-type opioid receptor", "experiment": "Displacement of [3H]U-69,593 from guinea pig brain kappa opoid receptor after 1 hr by liquid scintillation counting analysis"}, "[8]": {"experiment": "Displacement of [3H]DPDPE from guinea pig brain delta opoid receptor after 4 hrs by liquid scintillation counting analysis", "design": "species or system Cavia porcellus"}, "Mu-type opioid receptor [9]": {"target": "T2, Mu-type opioid receptor (Cavia porcellus, UniProt P97266)", "T2 sequence (P97266 whole entry)": "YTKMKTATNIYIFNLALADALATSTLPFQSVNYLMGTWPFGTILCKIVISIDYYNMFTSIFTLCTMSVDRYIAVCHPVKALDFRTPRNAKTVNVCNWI", "experiment": "Displacement of [3H]DAMGO from guinea pig brain mu opoid receptor after 3 hrs by liquid scintillation counting analysis"}, "Mu-type opioid receptor [10]": {"target": "T2, Mu-type opioid receptor", "experiment": "Displacement of [3H]DAMGO from mu opoid receptor in Dunkin-Hartley guinea pig brain after 1.5 hrs by liquid scintillation spectrometry"}, "[11]": {"target": "Kappa-type opioid receptor (Homo sapiens, UniProt P41145)", "sequence (P41145 whole entry)": "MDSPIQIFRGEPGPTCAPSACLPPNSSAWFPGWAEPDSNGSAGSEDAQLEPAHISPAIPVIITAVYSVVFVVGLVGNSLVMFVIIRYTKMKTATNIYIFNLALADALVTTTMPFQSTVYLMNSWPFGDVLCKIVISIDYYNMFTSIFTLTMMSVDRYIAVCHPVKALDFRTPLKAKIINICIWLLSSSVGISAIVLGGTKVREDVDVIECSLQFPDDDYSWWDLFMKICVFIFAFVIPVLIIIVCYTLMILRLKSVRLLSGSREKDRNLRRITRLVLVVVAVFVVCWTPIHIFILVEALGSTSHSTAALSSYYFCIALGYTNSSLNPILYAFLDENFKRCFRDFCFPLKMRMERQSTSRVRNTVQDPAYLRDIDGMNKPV", "experiment": "Binding affinity to kappa opioid receptor (unknown origin)"}, "Mu-type opioid receptor [12]": {"target": "Mu-type opioid receptor (Homo sapiens, UniProt P35372)", "sequence (P35372 whole entry)": "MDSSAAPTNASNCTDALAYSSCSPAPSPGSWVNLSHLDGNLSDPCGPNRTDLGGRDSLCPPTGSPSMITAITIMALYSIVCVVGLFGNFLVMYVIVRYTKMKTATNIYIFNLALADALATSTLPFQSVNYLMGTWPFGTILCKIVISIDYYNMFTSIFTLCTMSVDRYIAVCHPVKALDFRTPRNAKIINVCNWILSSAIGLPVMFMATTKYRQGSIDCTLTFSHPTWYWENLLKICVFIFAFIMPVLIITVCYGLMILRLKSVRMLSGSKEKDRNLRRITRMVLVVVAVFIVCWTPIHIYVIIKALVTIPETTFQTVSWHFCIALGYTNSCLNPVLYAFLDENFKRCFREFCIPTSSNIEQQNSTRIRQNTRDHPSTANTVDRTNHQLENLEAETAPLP", "experiment": "Binding affinity to mu opioid receptor (unknown origin)"}, "[13]": {"experiment": "Binding affinity to delta opioid receptor (unknown origin)"}}, "note": "Active and inactive are the calls of the source. The rule behind the calls is not given here.", "data": [{"smiles": "CC[C@@H]1CN2CC[C@@]3(OC)C(=Nc4cccc(OC)c43)[C@@H]2C[C@@H]1/C(=C\\OC)C(=O)OC", "values": [{"measurement": "Efficacy", "setting": "Cavia porcellus [1]", "result": 70, "unit": "%"}, {"measurement": "inhibition", "setting": "Cavia porcellus [1]", "result": 19, "unit": "%"}]}, {"smiles": "CC[C@@H]1CN2CCc3c([nH]c4cccc(OC)c34)[C@@H]2C[C@@H]1/C(=C\\OC)C(=O)OC", "values": [{"measurement": "Efficacy", "setting": "Cavia porcellus [1]", "result": 95, "unit": "%"}, {"measurement": "inhibition", "setting": "Cavia porcellus [1]", "result": 26, "unit": "%"}, {"measurement": "inhibition (INH)", "setting": "Rattus norvegicus", "result": 18, "unit": "%"}, {"measurement": "Activity", "setting": "Mus musculus [2]", "result": 100, "unit": "%"}, {"measurement": "Ratio Ki", "setting": "Cavia porcellus [3]", "result": 10}, {"measurement": "Ki", "setting": "[4]", "result": "> 1000", "unit": "nM"}, {"measurement": "Ki", "setting": "[5]", "result": 60, "unit": "nM"}]}, {"smiles": "CC[C@@H]1CN2CCc3c([nH]c4cccc(OC(C)=O)c34)[C@@H]2C[C@@H]1/C(=C\\OC)C(=O)OC", "values": [{"measurement": "Efficacy", "setting": "Cavia porcellus [1]", "result": 38, "unit": "%"}, {"measurement": "inhibition", "setting": "Cavia porcellus [1]", "result": 2, "unit": "%"}]}, {"smiles": "CC[C@@H]1CN2CCc3c([nH]c4cccc(O)c34)[C@@H]2C[C@@H]1/C(=C\\OC)C(=O)OC", "values": [{"measurement": "Efficacy", "setting": "Cavia porcellus [1]", "result": 57, "unit": "%"}, {"measurement": "inhibition", "setting": "Cavia porcellus [1]", "result": 41, "unit": "%"}]}, {"smiles": "CC[C@@H]1CN2CC[C@@]3(OC(C)=O)C(=Nc4cccc(OC)c43)[C@@H]2C[C@@H]1/C(=C\\OC)C(=O)OC", "values": [{"measurement": "Efficacy", "setting": "Cavia porcellus [1]", "result": 15, "unit": "%"}, {"measurement": "inhibition", "setting": "Cavia porcellus [1]", "result": 21, "unit": "%"}]}, {"smiles": "CC[C@@H]1CN2CC[C@@]3(O)C(=Nc4cccc(OC)c43)[C@@H]2C[C@@H]1/C(=C\\OC)C(=O)OC", "values": [{"measurement": "Efficacy", "setting": "Cavia porcellus [1]", "result": 99, "unit": "%"}, {"measurement": "Activity", "setting": "Mus musculus [6]", "result": "Active"}, {"measurement": "Ki", "setting": "[7]", "result": 195, "unit": "nM"}, {"measurement": "Ki", "setting": "[8]", "result": 145, "unit": "nM"}, {"measurement": "Ki", "setting": "Mu-type opioid receptor [9]", "result": 9.8, "unit": "nM"}, {"measurement": "Ratio Ki", "setting": "Cavia porcellus [3]", "result": "> 10"}, {"measurement": "Ki", "setting": "[5]", "result": 155, "unit": "nM"}, {"measurement": "Ki", "setting": "Mu-type opioid receptor [10]", "result": 13, "unit": "nM"}]}, {"smiles": "CN1CC[C@]23c4c5ccc(O)c4O[C@H]2[C@@H](O)C=C[C@H]3[C@H]1C5", "note": "[MORPHINE]", "values": [{"measurement": "inhibition (INH)", "setting": "Rattus norvegicus", "result": 70, "unit": "%"}, {"measurement": "Activity", "setting": "Mus musculus [6]; route subcutaneous", "result": 100, "unit": "%"}]}, {"smiles": "COc1ccc2c3c1O[C@H]1[C@@H](O)C=C[C@H]4[C@@H](C2)N(C)CC[C@@]341", "note": "[CODEINE]", "values": [{"measurement": "inhibition (INH)", "setting": "Rattus norvegicus", "result": 70, "unit": "%"}]}, {"smiles": "CCO[C@]12CCN3C[C@@H](CC)[C@@H](/C(=C\\OC)C(=O)OC)C[C@H]3C1=Nc1cccc(OC)c12", "values": [{"measurement": "Efficacy", "setting": "Cavia porcellus [1]", "result": 26, "unit": "%"}, {"measurement": "inhibition", "setting": "Cavia porcellus [1]", "result": 1, "unit": "%"}]}, {"smiles": "CC[C@@H]1CN2CC[C@]3(Nc4cccc(OC)c4C3=O)[C@@H]2C[C@@H]1/C(=C\\OC)C(=O)OC", "values": [{"measurement": "Ki", "setting": "[11]", "result": 79, "unit": "nM"}, {"measurement": "Ki", "setting": "Mu-type opioid receptor [12]", "result": 0.01, "unit": "nM"}, {"measurement": "Ki", "setting": "[13]", "result": 3, "unit": "nM"}]}, {"smiles": "CC[C@@H]1CN2CC[C@@]34OCCO[C@@]3(Nc3ccc(F)c(OC)c34)[C@@H]2C[C@@H]1/C(=C\\OC)C(=O)OC", "values": [{"measurement": "Ki", "setting": "[11]", "result": 7, "unit": "nM"}, {"measurement": "Ki", "setting": "Mu-type opioid receptor [12]", "result": 7, "unit": "nM"}]}]}
